Common to all, as to experiment: growth of human tumour cells (NCI), 48 h
Assay [1] has as its system CAKI-1 renal.
The subject of assay [2] is HCT-116 colon.
Assay [3] deals with MCF7 breast.
Assay [4] deals with MOLT-4 leukemia.
Assay [5] concerns NCI-H23 lung.
The subject of assay [6] is NCI-H460 lung.
In assay [7] the test system is SK-MEL-5 melanoma.
In assay [8] the test system is SK-OV-3 ovarian.
In assay [9] the test system is U251 CNS.
For assay [10], the system named is UACC-257 melanoma.

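Grown in 96-well plates, cells were treated for 48 hours with each compound at five concentrations. Insufficient inhibition: endpoint recorded as highest concentration tested. Here, GI50 denotes the concentration required for 50% inhibition of growth. TGI is the concentration that stops growth completely.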

As for `Cc1cccc(N=C2c3cc([N+](=O)[O-])ccc3-c3c2cc([N+](=O)[O-])cc3[N+](=O)[O-])c1`, the GI50 in assay [1] was 15.5 µM; in assay [2], 1.67 µM; in assay [3] it was 6.27 µM; in assay [4], 3.64 µM; in assay [5], 5.33 µM; in [6] it was 3.64 µM. In addition, the GI50 in assay [7] is 5.44 µM; in assay [8] it was more than 100 µM; in assay [9] it was 2.57 µM; in [10] it was 6.81 µM. The TGI in assay [1] is 77.9 µM; in assay [2], 3.37 µM; in [3], 28.2 µM; in assay [4], more than 100 µM; in assay [5], 27.6 µM; in assay [6] it was 14.4 µM. Besides, the TGI in assay [7] was 17.9 µM; in assay [8], more than 100 µM; in assay [9], 7.41 µM; in assay [10], 34.5 µM.

Take `O=C(O)c1cccc(CC(Br)C(=O)O)c1` (stereo not given): the TGI in [1], in [2], in assay [3], in assay [4], in assay [5] and in assay [6] was more than 100 µM in each case. In addition, the TGI in assay [7], in assay [8], in assay [9] and in [10] was more than 100 µM in each case.

On to `O=C(O)CC1(C(=O)O)CCCCC1`, for which the TGI in assay [1], in assay [2], in [3], in assay [4], in [5] and in assay [6] was more than 100 µM in each case. The TGI in assay [7], in [8], in assay [9] and in assay [10] was more than 100 µM in each case.

As to `O=C(/C=C\Sc1nccc(C(F)(F)F)n1)c1ccc(Br)cc1`, the GI50 was 18 µM in assay [1]; 12.8 µM in [2]; 28 µM in [3]; 4.44 µM in [4]; 22.8 µM in assay [5]; more than 100 µM in assay [6]. Further, the GI50 was 37.9 µM in [7], more than 100 µM in assay [8], 25 µM in assay [9] and 56.4 µM in assay [10]. The TGI in [1] is 35.1 µM; in assay [2], 25.5 µM; in [3], 84.8 µM; in [4] it was 16.2 µM; in [5], 52.6 µM; in [6] it was more than 100 µM. The TGI in [7] is more than 100 µM; in [8], more than 100 µM; in assay [9] it was 72.8 µM; in [10], more than 100 µM.

With `COc1cc(-c2nc3ccccc3s2)ccc1OCc1nc2n(n1)S(=O)(=O)c1ccccc1N2C`, the GI50 in assay [1], in [2], in assay [3], in [4], in assay [5] and in assay [6] was more than 100 µM throughout. Besides, the GI50 in [7], in assay [8], in assay [9] and in assay [10] was more than 100 µM throughout. In addition, the TGI in assay [1], in assay [2], in assay [3], in [4], in assay [5] and in assay [6] was more than 100 µM each time. Besides, the TGI in [7], in assay [8], in [9] and in [10] was more than 100 µM in each case.

For the compound `COc1cc2c(cc1OC)[C@@]1(C)C(=O)c3cc4c(cc3[C@H]1N(C)C2=O)OCO4`, the GI50 in [1] was 37.3 µM; in assay [2], 43.6 µM; in [3], 65.3 µM; in assay [4], 33.3 µM; in assay [5] it was more than 100 µM; in assay [6], 37.7 µM. Besides, the GI50 in assay [7] was 45.5 µM; in [8], 95.5 µM; in [9], 34.3 µM; in assay [10], 23.7 µM. In addition, the TGI in [1], in [2], in assay [3], in assay [4], in [5] and in [6] was more than 100 µM throughout. Further, the TGI was more than 100 µM in assay [7], more than 100 µM in [8], more than 100 µM in assay [9] and 91.9 µM in assay [10].

Take `CCOC(=O)c1c(Cl)c2c(n1Cc1cc(OC)cc(OC)c1)-c1oncc1CCC2`: the GI50 was 0.29 µM in assay [1]; 0.432 µM in [2]; 0.168 µM in assay [3]; 0.512 µM in assay [4]; 0.607 µM in assay [5]; 0.375 µM in assay [6]. Further, the GI50 in assay [7] is 0.451 µM; in assay [8] it was 0.4 µM; in assay [9], 0.351 µM; in assay [10], 0.92 µM. Also, the TGI in assay [1] was more than 60.7 µM; in [2], more than 100 µM; in assay [3] it was more than 100 µM; in assay [4] it was more than 100 µM; in assay [5] it was more than 100 µM; in [6] it was more than 100 µM. The TGI was more than 100 µM in [7], 49.6 µM in assay [8], more than 100 µM in assay [9] and more than 100 µM in assay [10].

Take `COc1cnc2c(c1)C(=O)c1c-2n(CCCN2CCN(C)CC2)c(=O)c2cc(Cl)ccc12`: the GI50 in assay [1] is 2.97 µM; in assay [2] it was 0.982 µM; in [3], 0.487 µM; in assay [4] it was 0.345 µM; in assay [5], 6.27 µM; in assay [6], 0.377 µM. Besides, the GI50 in [7] was 11 µM; in assay [8], 10.1 µM; in assay [9], 7.24 µM; in assay [10], 4.04 µM. Besides, the TGI in assay [1] was 18.4 µM; in assay [2] it was more than 100 µM; in assay [3] it was 21.7 µM; in assay [4], 5.33 µM; in [5], 24.6 µM; in assay [6] it was 13.8 µM. Further, the TGI in assay [7] came out at 25.2 µM; in [8], 36.4 µM; in assay [9], 49.6 µM; in [10], 22.3 µM.

Turning to `CO[C@H]1CC[C@@]2(C)C(=CC[C@H]3[C@@H]4C[C@H](O)C[C@@]4(C)CC[C@@H]32)C1`, the GI50 in [1] is 2.93 µM; in [2], 4.88 µM; in [3] it was 5.32 µM; in [4], 4.92 µM; in assay [5], 5.54 µM; in assay [6], 3.56 µM. Besides, the GI50 in [7] is 3.23 µM; in [8], 4.46 µM; in [9], 3.54 µM; in assay [10], 4.89 µM. Further, the TGI is 16.3 µM in assay [1]; 18.1 µM in assay [2]; 25.3 µM in assay [3]; 30.6 µM in [4]; 27.1 µM in [5]; 13.9 µM in assay [6]. The TGI is 13.1 µM in [7], 49 µM in assay [8], 15 µM in [9] and 17.9 µM in assay [10].

Regarding `COc1ccc(F)cc1C(=O)c1cnc(NC2CCN(S(C)(=O)=O)CC2)nc1N`, the GI50 is 2.88 µM in assay [1]; 1.21 µM in assay [2]; 0.18 µM in [3]; 2.66 µM in assay [4]; 2.97 µM in assay [5]; 0.783 µM in assay [6]. The GI50 is 3.12 µM in [7], 8.82 µM in [8], 1.07 µM in assay [9] and 4.24 µM in [10]. Moreover, the TGI was more than 17.6 µM in assay [1]; more than 25 µM in assay [2]; more than 25 µM in assay [3]; more than 19 µM in [4]; 16.7 µM in [5]; more than 25 µM in assay [6]. The TGI in assay [7] is more than 21.4 µM; in assay [8], more than 25 µM; in [9], more than 19.6 µM; in assay [10] it was 15.5 µM.

For the compound `CC(C)=CCC/C(C)=C/CC/C(=C/COP(=O)(OCc1ccc([N+](=O)[O-])o1)N(C)CCCCCl)C(C)(C)C` (stereo not given), the GI50 in assay [1] is 5.78 µM; in assay [2], 2.04 µM; in [3] it was 2.47 µM; in assay [4] it was 1.82 µM; in assay [5] it was 12.6 µM; in assay [6] it was 5 µM. Moreover, the GI50 is 3.29 µM in [7], 18.1 µM in assay [8], 1.76 µM in assay [9] and 10.8 µM in [10]. Besides, the TGI is 22 µM in assay [1]; 11.8 µM in [2]; 18.6 µM in assay [3]; more than 100 µM in assay [4]; 34.2 µM in assay [5]; 11.5 µM in assay [6]. The TGI worked out at 11.4 µM in assay [7], 38.7 µM in assay [8], 12 µM in assay [9] and 27.6 µM in assay [10].

For the compound `COc1cc(C(=O)n2nc(N3CCN(C)CC3)c3cc(N)ccc32)cc(OC)c1OC`, the GI50 in assay [1] is 4.52 µM; in assay [2], 3.84 µM; in assay [3], 3.02 µM; in assay [4] it was 3.78 µM; in [5], 4.15 µM; in assay [6] it was 4.34 µM. Also, the GI50 in assay [7] was 3.03 µM; in [8], 4.26 µM; in assay [9], 3.65 µM; in assay [10], 28.5 µM. Further, the TGI in assay [1] was more than 100 µM; in [2], more than 100 µM; in assay [3], more than 100 µM; in assay [4] it was 43.9 µM; in [5], more than 100 µM; in assay [6], more than 100 µM. Also, the TGI in assay [7] was 9.06 µM; in assay [8] it was 93.2 µM; in [9], 25.8 µM; in [10], more than 100 µM.

For `O=C1/C(=C/c2ccc(Cl)cc2)CN(C(=O)C(Cl)Cl)C/C1=C\c1ccc(Cl)cc1`, the GI50 was 0.264 µM in [1]; 0.0336 µM in assay [2]; 0.0441 µM in assay [3]; 0.273 µM in [4]; 0.242 µM in [5]; 0.274 µM in assay [6]. In addition, the GI50 in assay [7] is 0.231 µM; in assay [8], 0.531 µM; in [9], 0.052 µM; in assay [10] it was 0.465 µM. Besides, the TGI in assay [1] was 0.865 µM; in assay [2], 0.13 µM; in assay [3], 0.56 µM; in assay [4], more than 28.1 µM; in [5] it was 0.887 µM; in assay [6], 0.822 µM. In addition, the TGI is 0.58 µM in [7], 1.74 µM in [8], 0.186 µM in assay [9] and 1.55 µM in [10].

Turning to `Nc1nccc(Nc2ccc(S(N)(=O)=O)cc2)n1`, the TGI in assay [1], in assay [2], in assay [3], in [4], in [5] and in [6] was more than 100 µM each time. For the same compound, the TGI in assay [7], in assay [8], in assay [9] and in assay [10] was more than 100 µM each time.

Take `CC(=O)OCC1OC(S[As](C)C)C(OC(C)=O)C1OC(C)=O` (stereo not given): the GI50 in [1] is 0.0791 µM; in assay [2] it was 0.226 µM; in assay [3], 0.304 µM; in assay [4], 0.177 µM; in assay [5] it was 0.551 µM; in [6], 2.36 µM. Also, the GI50 is 0.162 µM in [7], 1.14 µM in assay [8], 0.546 µM in [9] and 1.57 µM in assay [10]. Besides, the TGI in assay [1] came to 0.453 µM; in assay [2], 1.38 µM; in [3] it was 1.11 µM; in assay [4], 0.765 µM; in [5], 3.63 µM; in assay [6] it was 14.4 µM. Besides, the TGI in assay [7] is 0.385 µM; in assay [8] it was 7.71 µM; in assay [9], 2.72 µM; in assay [10], 7.06 µM.

Consider `COc1ccc(Nc2ccnc(NCCCNc3ccnc4cc(Cl)ccc34)n2)cc1`, for which the GI50 in assay [1] is 1.15 µM; in [2], 0.374 µM; in [3] it was 0.599 µM; in assay [4] it was 1.45 µM; in [5], 2.43 µM; in [6] it was 1.27 µM. For the same compound, the GI50 is 0.387 µM in [7], 1.68 µM in [8], 0.59 µM in assay [9] and 1.33 µM in [10]. Besides, the TGI in assay [1] was 2.41 µM; in assay [2], 1.54 µM; in [3] it was 2.42 µM; in [4], 7.22 µM; in assay [5], 8.5 µM; in assay [6], 2.85 µM. Besides, the TGI in [7] worked out at 1.46 µM; in [8], 3.18 µM; in assay [9] it was 1.89 µM; in [10], 2.75 µM.
